System: Mtb-infected mouse lungs
Assay: Genome-wide lung transcriptome (microarray, IPA network/GO analysis) of Mtb-infected mice
Assay type: in vivo
Settings: TNF-a regulon network

## CCOc1cc([C@@H](CS(C)(=O)=O)N2Cc3cccc(NC(=O)C4CC4)c3C2=O)ccc1OC [CC-11050, N-[2-[(1S)-1-(3-ethoxy-4-methoxyphenyl)-2-(methylsulfonyl)ethyl]-2,3-dihydro-3-oxo-1H-isoindol-4-yl]-(9Cl) cyclopropanecarboxamide]
  CCL19 expression: 0
  CCL20 expression: 0
  CCR8 expression: 0
  CD3E expression: 0
  CD5 expression: 0
  CD28 expression: 0
  CD40 expression: 0
  CD69 expression: 0
  CD80 expression: 0
  CD82 expression: 0
  CD83 expression: 0
  CD247 expression: 0
  CD274 expression: 0
  CDC25C expression: 0
  CDH2 expression: 0
  CDH13 expression: 0
  CDKN2C expression: 0
  CDO1 expression: 1.459
  CEBPD expression: 0
  CELF1 expression: 0
  CFB expression: 0
  CFD expression: 0
  CFLAR expression: 0
  CH25H expression: 0
  CHST2 expression: 0
  CHST4 expression: 0
  CIB2 expression: 0
  CIDEC expression: 0
  CLDN11 expression: 0
  CLEC4E expression: 0
  CLEC5A expression: 0
  COL1A2 expression: 0
  COTL1 expression: 0
  CPT1A expression: 1.211
  CPT2 expression: 0
  CRADD expression: 0
  CREM expression: 0
  CSF1R expression: 0
  CSF1 expression: 0
  CST7 expression: 0
  CTNNB1 expression: 0
  CTSB expression: 0
  CTSC expression: 0
  CTSF expression: 0
  CTSZ expression: 0
  CX3CR1 expression: 0
  CXCL2 expression: 0
  CXCL6 expression: 0
  CXCL9 expression: 0
  CXCL10 expression: 0
  CXCL11 expression: 0
  CXCL13 expression: 0
  CXCL16 expression: 0
  CXCR2 expression: 0
  CYBA expression: 0
  CYP1A1 expression: 0
  CYP2E1 expression: 0
  CYP7B1 expression: 0
  CYTH3 expression: 0
  CYTIP expression: 0
  DAG1 expression: 0
  DAXX expression: 0
  DBI expression: 0
  DBT expression: 0
  DCN expression: 0
  DDX58 expression: 0
  DENND4A expression: -1.412
  DHRS3 expression: 0
  DNMT1 expression: 0
  DPP4 expression: 0
  DUSP2 expression: 0
  DUSP5 expression: 0
  DUSP14 expression: 0
  EBI3 expression: 0
  ECH1 expression: 1.206
  EDN1 expression: 0
  EFNA1 expression: 0
  EFNB2 expression: 0
  EGFR expression: 1.258
  EGR2 expression: 0
  EIF2AK2 expression: 0
  EMP1 expression: 1.328
  ENG expression: 0
  ENPP3 expression: 0

Reference: publication PMC4911353, “Pharmacologic Inhibition of Host Phosphodiesterase-4 Improves Isoniazid-Mediated Clearance of Mycobacterium tuberculosis” (Frontiers in Immunology, 2016)
